Measured values: publication PMC11110763, “Carltonine-derived compounds for targeted butyrylcholinesterase inhibition” (RSC Medicinal Chemistry, 2024)
Read-outs that look alike come from different tables or passages of the source.

Tests used:
[1] = PAMPA assay (BBB penetration); conditions: for BBB penetration estimation CNS (+/−): class from PAMPA Pe; for Pe ± SEM: PAMPA, PBS pH 7.4, n = 3
Text: Furthermore, we experimentally determined the ability of 12 highlighted hBChE inhibitors to pass through the BBB using a parallel artificial membrane permeation assay (PAMPA) as described by Di et al.[65] […] The methodology was validated on a set of compounds (positive and negative controls) recognized for their activity in the CNS (Table 3).
In this study, it has been used as a non-cell-based in vitro assay carried out in a coated 96-well membrane filter. The filter membrane of the donor plate was coated with PBL (polar brain lipid, Avanti, USA) in dodecane (4 μl of 20 mg ml^−1 PBL in dodecane) and the acceptor well was filled with 300 μl of PBS (pH 7.4; VA). The tested compounds were dissolved first in DMSO and subsequently diluted with PBS (pH 7.4) to final concentrations of 50–100 μM in the donor wells. […] About 300 μL of the donor solution was added to the donor wells (VD) and the donor filter plate was carefully put on the acceptor plate so that the coated membrane was “in touch” with both the donor solution and acceptor buffer. In principle, the test compound diffused from the donor well through the lipid membrane (area = 0.28 cm^2) to the acceptor well. The concentration of the drug in both the donor and acceptor wells was assessed after 3, 4, 5, and 6 h of incubation in quadruplicate using the UV plate reader Spark (Tecan Group Ltd, Switzerland) at the maximum absorption wavelength of each compound. Besides that, a solution of theoretical compound concentration, simulating the equilibrium state established if the membrane were ideally permeable, was prepared and assessed as well. The concentration of the compounds in the donor and acceptor wells and equilibrium concentration were calculated from the standard curve and expressed as the permeability (Pe) according the equation: [drawing 10] where [drawing 11]

[2] = biological target: T1, recombinant BChE (hBChE, E.C. 3.1.1.8) (Homo sapiens, UniProt P06276); assay: biochemical; type: biochemical; conditions: for IC50: mean ± SEM of three independent measurements, each in triplicate; for inhibition at 10 µM: read-out: % inhibition of hBChE ± SEM
T1 construct: purchased Sigma-Aldrich, Prague, Czech Republic
T1 sequence (P06276 29-602): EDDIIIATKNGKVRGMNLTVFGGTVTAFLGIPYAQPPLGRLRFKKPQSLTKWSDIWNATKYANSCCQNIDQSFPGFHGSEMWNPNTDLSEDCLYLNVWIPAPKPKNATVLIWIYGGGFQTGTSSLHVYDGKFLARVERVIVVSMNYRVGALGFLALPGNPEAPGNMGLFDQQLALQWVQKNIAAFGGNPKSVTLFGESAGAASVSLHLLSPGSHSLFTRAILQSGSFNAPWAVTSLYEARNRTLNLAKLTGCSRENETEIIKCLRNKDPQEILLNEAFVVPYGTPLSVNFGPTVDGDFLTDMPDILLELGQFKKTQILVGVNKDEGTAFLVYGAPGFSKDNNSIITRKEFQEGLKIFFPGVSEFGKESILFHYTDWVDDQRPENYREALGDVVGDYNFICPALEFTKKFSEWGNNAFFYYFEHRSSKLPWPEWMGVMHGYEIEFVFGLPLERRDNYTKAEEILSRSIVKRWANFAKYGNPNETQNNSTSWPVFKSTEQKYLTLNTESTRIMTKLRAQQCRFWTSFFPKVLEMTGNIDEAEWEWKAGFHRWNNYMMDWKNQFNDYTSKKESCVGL
Experimental: The activities of hAChE and hBChE were determined using a modified Ellman's method, as described in ref. [56] and [62] against recombinant AChE (hAChE, E.C. 3.1.1.7) and recombinant BChE (hBChE, E.C. 3.1.1.8), both of which were purchased from Sigma-Aldrich, Prague, Czech Republic. […] The other compounds used, including the phosphate buffer solution (PBS, pH = 7.4), 5,5′-dithio-bis(2-nitrobenzoic) acid (Ellman's reagent, DTNB), acetylthiocholine (ATChI), and butyrylthiocholine (BTChI), were commercially available and purchased from Sigma-Aldrich in Prague, Czech Republic. In brief, the corresponding enzyme (8.3 μL), 5 mM DTNB (283 μL), and the sample dilution in dimethyl sulfoxide (DMSO) at various concentrations (8.3 μL) were added to 96-well microplates (BRAND GMBH + CO KG, Wertheim, Germany) and pre-incubated for 5 minutes in the assay medium. The reaction was initiated by adding 10 mM substrate (ATChI or BTChI, 33.3 μL). […] Each measurement was repeated in triplicate. The percentage of inhibition was calculated using the following formula: [drawing 8] where ΔABl represents the increase in absorbance of the blank sample, and ΔASa represents the increase in absorbance of the measured sample. […] Microsoft Excel (Redmond, WA, USA) and GraphPad Prism version 7 for Windows (GraphPad Software, San Diego, CA, USA) were used for the statistical data evaluation.

[3] = tested at 10 μM compound concentration

Compound | BBB penetration estimation CNS (+/−) [1] | IC50 [2] [nM] | inhibition at 10 µM [2, 3] [%] | hBChE inhibitory activity (in words) [2] | Pe ± SEM [1] | inhibition at 10 µM [2] [%]
NS(=O)(=O)c1cc2c(cc1Cl)N=CNS2(=O)=O [Chlorothiazide, reference compound] | CNS − (CNS (−) (low BBB permeation predicted): Pe (×10^−6 cm s^−1) < 2.0) |  |  |  |  | 
COc1cccc(CCNCc2cccc(OCc3ccccc3)c2)c1 [Compound 6, {[3-(Benzyloxy)phenyl]methyl}[2-(3-methoxyphenyl)ethyl]amine] |  | 2700 ± 200 | 78 ± 0.4 |  |  | 
COc1ccc(CCNCc2cccc(OCc3ccccc3)c2)cc1 [Compound 7, {[3-(Benzyloxy)phenyl]methyl}[2-(4-methoxyphenyl)ethyl]amine] |  | 4800 ± 200 | 73 ± 0.6 |  |  | 
C=CCN(CCc1ccc(O)cc1)Cc1cccc(OCc2ccccc2)c1 [Compound 8, 4-[2-({[3-(Benzyloxy)phenyl]methyl}(prop-2-en-1-yl)amino)ethyl]phenol] |  | 600 ± 100 | 92 ± 0.5 |  |  | 
C=CCOc1ccc(CCN(CC=C)Cc2cccc(OCc3ccccc3)c2)cc1 [Compound 9, {[3-(Benzyloxy)phenyl]methyl}(prop-2-en-1-yl){2-[4-(prop-2-en-1-yloxy)phenyl]ethyl}amine] |  | > 10000 | 46 ± 1.7 | complete loss of hBChE inhibitory activity |  | 
C=CCOc1ccc(CCNCc2cccc(OCc3ccccc3)c2)cc1 [Compound 12, {[3-(Benzyloxy)phenyl]methyl}({2-[4-(prop-2-en-1-yloxy)phenyl]ethyl})amine] |  | 4000 ± 1000 | 75.5 ± 0.5 |  |  | 
Clc1cccc(NCc2cccc(OCc3ccccc3)c2)c1 [Compound 13, N-{[3-(Benzyloxy)phenyl]methyl}-3-chloroaniline] |  | > 10000 | 7.5 ± 0.4 | completely inactive |  | 
c1ccc(CNCc2cccc(OCc3ccccc3)c2)cc1 [Compound 14, Benzyl({[3-(benzyloxy)phenyl]methyl})amine] | CNS + (CNS (+) (high BBB permeation predicted): Pe (×10^−6 cm s^−1) > 4.0) | 500 ± 100 | 92 ± 0.3 |  | 9.8 ± 2.9 ×10^−6 cm s^−1 | 
COc1ccc(CNCc2cccc(OCc3ccccc3)c2)cc1OC [Compound 15, {[3-(Benzyloxy)phenyl]methyl}[(3,4-dimethoxyphenyl)methyl]amine] |  | > 10000 | 49 ± 1.4 | completely inactive |  | 
c1ccc(CCNCc2cccc(OCc3ccccc3)c2)cc1 [Compound 16, {[3-(Benzyloxy)phenyl]methyl}(2-phenylethyl)amine] |  | 600 ± 100 | 91 ± 0.9 |  |  | 
c1ccc(CCCNCc2cccc(OCc3ccccc3)c2)cc1 [Compound 17, {[3-(Benzyloxy)phenyl]methyl}(3-phenylpropyl)amine] |  | 600 ± 100 | 89 ± 1.8 |  |  | 
CCN(Cc1ccccc1)Cc1cccc(OCc2ccccc2)c1 [Compound 19, Benzyl({[3-(benzyloxy)phenyl]methyl})ethylamine] | CNS + (CNS (+) (high BBB permeation predicted): Pe (×10^−6 cm s^−1) > 4.0) | 500 ± 100 | 88 ± 1.1 |  | 36 ± 14 ×10^−6 cm s^−1 | 
C=CCN(Cc1ccccc1)Cc1cccc(OCc2ccccc2)c1 [Compound 20, Benzyl({[3-(benzyloxy)phenyl]methyl})(prop-2-en-1-yl)amine] |  | > 10000 | 36 ± 0.8 |  |  | 
CCN(CCc1ccccc1)Cc1cccc(OCc2ccccc2)c1 [Compound 21, {[3-(Benzyloxy)phenyl]methyl}(ethyl)(2-phenylethyl)amine] | CNS + (CNS (+) (high BBB permeation predicted): Pe (×10^−6 cm s^−1) > 4.0) | 400 ± 100 | 91 ± 0.4 |  | 21.0 ± 0.6 ×10^−6 cm s^−1 | 
CCCN(CCc1ccccc1)Cc1cccc(OCc2ccccc2)c1 [Compound 22, {[3-(Benzyloxy)phenyl]methyl}(2-phenylethyl)propylamine] |  | 700 ± 100 | 81 ± 0.8 |  |  | 
C=CCN(CCc1ccccc1)Cc1cccc(OCc2ccccc2)c1 [Compound 23, {[3-(Benzyloxy)phenyl]methyl}(2-phenylethyl)(prop-2-en-1-yl)amine] |  | 7700 ± 1700 | 60 ± 0.4 |  |  | 
CCN(CCCc1ccccc1)Cc1cccc(OCc2ccccc2)c1 [Compound 24, {[3-(Benzyloxy)phenyl]methyl}(ethyl)(3-phenylpropyl)amine] |  | 600 ± 100 | 94 ± 0.6 |  |  | 
CCCN(CCCc1ccccc1)Cc1cccc(OCc2ccccc2)c1 [Compound 25, {[3-(Benzyloxy)phenyl]methyl}(3-phenylpropyl)propylamine] | CNS + (CNS (+) (high BBB permeation predicted): Pe (×10^−6 cm s^−1) > 4.0) | 540 ± 30 | 89 ± 0.8 |  | 33.0 ± 6.8 ×10^−6 cm s^−1 | 
C=CCN(CCCc1ccccc1)Cc1cccc(OCc2ccccc2)c1 [Compound 26, {[3-(Benzyloxy)phenyl]methyl}(3-phenylpropyl)(prop-2-en-1-yl)amine] |  | 1200 ± 300 | 76 ± 1.7 |  |  | 
COc1ccccc1CCNCc1ccc(OCc2ccccc2)cc1 [Compound 29, {[4-(Benzyloxy)phenyl]methyl}[2-(2-methoxyphenyl)ethyl]amine] |  | 800 ± 200 | 89 ± 0.9 |  |  | 

Compound | BBB penetration estimation CNS (+/−) [1] | IC50 [2] [nM] | inhibition at 10 µM [2, 3] [%] | hBChE inhibitory activity (in words) [2] | Pe ± SEM [1] | inhibition at 10 µM [2] [%]
COc1cccc(CCNCc2ccc(OCc3ccccc3)cc2)c1 [Compound 30, {[4-(Benzyloxy)phenyl]methyl}[2-(3-methoxyphenyl)ethyl]amine] |  | 4900 ± 1000 | 66 ± 0.1 |  |  | 
COc1ccc(CCNCc2ccc(OCc3ccccc3)cc2)cc1 [Compound 31, {[4-(Benzyloxy)phenyl]methyl}[2-(4-methoxyphenyl)ethyl]amine] |  | 3000 ± 600 | 93 ± 0.2 |  |  | 
Clc1ccc(CCNCc2ccc(OCc3ccccc3)cc2)cc1 [Compound 32, {[4-(Benzyloxy)phenyl]methyl}[2-(4-chlorophenyl)ethyl]amine] |  | 700 ± 200 | 85 ± 1 |  |  | 
CCCOc1ccc(CCN(CCC)Cc2ccc(OCc3ccccc3)cc2)cc1 [Compound 34, {[4-(Benzyloxy)phenyl]methyl}[2-(4-propoxyphenyl)ethyl]propylamine] |  | > 10000 | 30 ± 0.9 | complete loss of hBChE inhibitory activity |  | 
c1ccc(CNCc2ccc(OCc3ccccc3)cc2)cc1 [Compound 35, Benzyl({[4-(benzyloxy)phenyl]methyl})amine] |  | 2800 ± 600 | 60 ± 0.1 |  |  | 
c1ccc(COc2ccc(CNCc3ccccn3)cc2)cc1 [Compound 36, {[4-(Benzyloxy)phenyl]methyl}[(pyridin-2-yl)methyl]amine] |  | > 10000 | 18 ± 0.5 |  |  | 
c1ccc(CCNCc2ccc(OCc3ccccc3)cc2)cc1 [Compound 37, {[4-(Benzyloxy)phenyl]methyl}(2-phenylethyl)amine] |  | 2000 ± 300 | 81 ± 1.4 |  |  | 
c1ccc(COc2ccc(CNCCc3ccccn3)cc2)cc1 [Compound 38, {[4-(Benzyloxy)phenyl]methyl}[2-(pyridin-2-yl)ethyl]amine] |  | > 10000 | 23 ± 1 |  |  | 
c1ccc(CCCNCc2ccc(OCc3ccccc3)cc2)cc1 [Compound 39, {[4-(Benzyloxy)phenyl]methyl}(3-phenylpropyl)amine] |  | 700 ± 100 | 90 ± 0.3 |  |  | 
c1ccc(CCCCNCc2ccc(OCc3ccccc3)cc2)cc1 [Compound 40, {[4-(Benzyloxy)phenyl]methyl}(4-phenylbutyl)amine] |  | 800 ± 100 | 85 ± 0.6 |  |  | 
CC(CNCc1ccc(OCc2ccccc2)cc1)c1ccccc1 (stereo not shown) [Compound 41, {[4-(Benzyloxy)phenyl]methyl}(2-phenylpropyl)amine] |  | 1600 ± 100 | 88 ± 1 |  |  | 
CC(CCc1ccccc1)NCc1ccc(OCc2ccccc2)cc1 (stereo not shown) [Compound 42, {[4-(Benzyloxy)phenyl]methyl}(4-phenylbutan-2-yl)amine] | CNS + (CNS (+) (high BBB permeation predicted): Pe (×10^−6 cm s^−1) > 4.0) | 500 ± 100 | 92 ± 0.5 |  | 22.0 ± 4.2 ×10^−6 cm s^−1 | 
CCN(Cc1ccccc1)Cc1ccc(OCc2ccccc2)cc1 [Compound 43, Benzyl({[4-(benzyloxy)phenyl]methyl})ethylamine] |  | > 10000 | 50 ± 1.1 |  |  | 
CCCN(Cc1ccccc1)Cc1ccc(OCc2ccccc2)cc1 [Compound 44, Benzyl({[4-(benzyloxy)phenyl]methyl})propylamine] |  | > 10000 | 18 ± 0.3 |  |  | 
CCCN(CCCc1ccccc1)Cc1ccc(OCc2ccccc2)cc1 [Compound 45, {[4-(Benzyloxy)phenyl]methyl}(3-phenylpropyl)propylamine] | CNS + (CNS (+) (high BBB permeation predicted): Pe (×10^−6 cm s^−1) > 4.0) | 290 ± 40 | 93 ± 0.8 |  | 25.0 ± 2.9 ×10^−6 cm s^−1 | 
CCN(Cc1ccc(OCc2ccccc2)cc1)C(C)CCc1ccccc1 (stereo not shown) [Compound 46, {[4-(Benzyloxy)phenyl]methyl}(ethyl)(4-phenylbutan-2-yl)amine] | CNS + (CNS (+) (high BBB permeation predicted): Pe (×10^−6 cm s^−1) > 4.0) | 500 ± 300 | 87 ± 1.5 |  | 36.0 ± 2.0 ×10^−6 cm s^−1 | 
CCCN(Cc1ccc(OCc2ccccc2)cc1)C(C)CCc1ccccc1 (stereo not shown) [Compound 47, {[4-(Benzyloxy)phenyl]methyl}(4-phenylbutan-2-yl)propylamine] |  | 1000 ± 300 | 93 ± 0.2 |  |  | 
CNC(=O)Oc1ccc2c(c1)[C@]1(C)CCN(C)[C@@H]1N2C [Eserine, reference compound] |  |  |  |  |  | 96 ± 0.3
COc1ccc2c3c1O[C@H]1C[C@@H](O)C=C[C@@]31CCN(C)C2 [Galantamine, reference compound] |  |  |  |  |  | 29 ± 3.5
Nc1c2c(nc3ccccc13)CCCC2 [Tacrine, reference compound] | CNS + (CNS (+) (high BBB permeation predicted): Pe (×10^−6 cm s^−1) > 4.0) |  |  |  |  | 
